Tested on: Rh18 complex spheroid viability, percent test/control
Assay: Anticancer human tumor Rh18 cell line growth inhibition [Asc];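 also: spheroids exposed to compound for 7 days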;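 as to viability, T/C: 100% = DMSO vehicle control wells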
Details: for IC50: curve of first compound; for viability, T/C: stronger effect = lower value
Procedure, shortened: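 Spheroid model: tumor line + HUVEC + hMSC. Single agents and combinations; top conc. at/near clinical Cmax (10 microM if undetermined), half-log dilutions. DMSO stocks at 800-fold test concentration.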

[1] = second compound 0.1 µM, first compound 0.00316 µM
[2] = second compound 0.1 µM, first compound 0.01 µM
[3] = second compound 0.1 µM, first compound 0.0316 µM
[4] = second compound 0.1 µM, first compound 0.1 µM
[5] = second compound 0.1 µM, first compound 0.316 µM
[6] = second compound 0.1 µM, first compound 1 µM
[7] = second compound 0.316 µM, first compound 0.00316 µM
[8] = second compound 0.316 µM, first compound 0.01 µM
[9] = second compound 0.316 µM, first compound 0.0316 µM
[10] = second compound 0.316 µM, first compound 0.1 µM
[11] = second compound 0.316 µM, first compound 0.316 µM
[12] = second compound 0.316 µM, first compound 1 µM
[13] = second compound 1 µM, first compound 0.00316 µM
[14] = second compound 1 µM, first compound 0.01 µM
[15] = second compound 1 µM, first compound 0.0316 µM
[16] = second compound 1 µM, first compound 0.1 µM
[17] = second compound 1 µM, first compound 0.316 µM
[18] = second compound 1 µM, first compound 1 µM
[19] = second compound 3.16 µM, first compound 0.00316 µM
[20] = second compound 3.16 µM, first compound 0.01 µM
[21] = second compound 3.16 µM, first compound 0.0316 µM
[22] = second compound 3.16 µM, first compound 0.1 µM
[23] = second compound 3.16 µM, first compound 0.316 µM
[24] = second compound 3.16 µM, first compound 1 µM
[25] = second compound 10 µM, first compound 0.00316 µM
[26] = second compound 10 µM, first compound 0.01 µM
[27] = second compound 10 µM, first compound 0.0316 µM
[28] = second compound 10 µM, first compound 0.1 µM
[29] = second compound 10 µM, first compound 0.316 µM
[30] = second compound 10 µM, first compound 1 µM

Compound | IC50 (second compound 0.1 µM) [nM] | IC50 (second compound 0.316 µM) [nM] | IC50 (second compound 1 µM) [nM] | IC50 (second compound 3.16 µM) [nM] | IC50 (second compound 10 µM) [nM] | viability, T/C [1] [%] | viability, T/C [2] [%] | viability, T/C [3] [%] | viability, T/C [4] [%] | viability, T/C [5] [%] | viability, T/C [6] [%] | viability, T/C [7] [%] | viability, T/C [8] [%] | viability, T/C [9] [%] | viability, T/C [10] [%] | viability, T/C [11] [%] | viability, T/C [12] [%] | viability, T/C [13] [%] | viability, T/C [14] [%] | viability, T/C [15] [%] | other results
CCN1CCN(Cc2ccc(Nc3ncc(F)c(-c4cc(F)c5nc(C)n(C(C)C)c5c4)n3)nc2)CC1 + Cc1c(S(C)(=O)=O)c(-c2cc(F)cc(N3CCN(c4ccc(NS(=O)(=O)c5ccc(NC(CCN6CCC(C(=O)OCCCP(=O)(O)O)CC6)CSc6ccccc6)c(S(=O)(=O)C(F)(F)F)c5)cc4)CC3)c2)c(-c2ccc(Cl)cc2)n1C(C)C | < 3.16 | < 3.16 | < 3.16 | < 3.16 | < 3.16 | 12.9 | 10.8 | 12.1 | 10.3 | 17.6 | 16.5 | 9.27 | 8.57 | 8.42 | 8.33 | 9.57 | 13.1 | 7.77 | 7.58 | 7.78 | viability, T/C [16]: 7.11%; viability, T/C [17]: 8.27%; viability, T/C [18]: 11.2%; viability, T/C [19]: 5.69%; viability, T/C [20]: 6.84%; viability, T/C [21]: 6.29%; viability, T/C [22]: 6.51%; viability, T/C [23]: 6.86%; viability, T/C [24]: 8.35%; viability, T/C [25]: 4.28%; viability, T/C [26]: 4.29%; viability, T/C [27]: 5.21%; viability, T/C [28]: 7.08%; viability, T/C [29]: 6.28%; viability, T/C [30]: 10.4%
COc1c(OCCCN2CCOCC2)ccc2c3n(c(=NC(=O)c4cnc(N)nc4)nc12)CCN3 + Cc1c(S(C)(=O)=O)c(-c2cc(F)cc(N3CCN(c4ccc(NS(=O)(=O)c5ccc(NC(CCN6CCC(C(=O)OCCCP(=O)(O)O)CC6)CSc6ccccc6)c(S(=O)(=O)C(F)(F)F)c5)cc4)CC3)c2)c(-c2ccc(Cl)cc2)n1C(C)C | < 3.16 | < 3.16 | < 3.16 | < 3.16 | < 3.16 | 17.1 | 9.25 | 5.96 | 2.81 | 0.62 | 0.45 | 7.85 | 8.34 | 4.97 | 1.98 | 0.56 | 0.49 | 8.6 | 6.08 | 4.68 | viability, T/C [16]: 1.06%; viability, T/C [17]: 0.44%; viability, T/C [18]: 0.48%; viability, T/C [19]: 5.39%; viability, T/C [20]: 5.31%; viability, T/C [21]: 3.11%; viability, T/C [22]: 0.45%; viability, T/C [23]: 0.35%; viability, T/C [24]: 0.46%; viability, T/C [25]: 3.54%; viability, T/C [26]: 5%; viability, T/C [27]: 2.62%; viability, T/C [28]: 0.51%; viability, T/C [29]: 0.53%; viability, T/C [30]: 0.49%
